These results are taken from patent publication US7951838B2, “Substituted spirocyclic chromanamine compounds as Beta-Secretase modulators and methods of use” (Amgen Inc., priority 2007, dated 2011).

For assay [1], the target named is T1, BACE (Homo sapiens, UniProt P56817).
T1 construct: Cells stably expressing Amyloid Precursor Protein (APP) were plated at a density of 40K cells/well in 96 well plates; endogenous in cells
In words: In vitro enzymatic BACE FRET assay (Enzyme Assay). The format is biochemical. Conditions: pH 4.2, enzyme 0.2 nM, FRET substrate 50 nM. How it is done:
In Vitro Enzymatic BACE FRET (Fluorescence Resonance Energy Transfer) Assay (Enzyme Assay)
Assay buffer is 0.05 M acetate, pH 4.2, 10% DMSO final, 100 uM genapol (which is a nonionic detergent, below it's Critical Micelle Concentration). Enzyme (0.2 nM) is pre-incubated for one hour with inhibitors added in 1 uL of DMSO. Then the assay is started by the addition of FRET substrate (50 nM) and incubated for one hour. The FRET assay is terminated with by addition of Tris buffer, which raises the pH to neutrality, and the fluorescence is determined The FRET substrate is a peptide with commercially available fluorophore and quencher, on opposite sides of the BACE cleavage site. Proteolytic cleavage of the FRET substrate releases quenching of fluorescence (excitation 488 nm and […]).

Assay [2] deals with T1, BACE. As to the kind of experiment: BACE cell-based assay (Cell Assay), inhibition of Aβ40 by sandwich ELISA. Conditions: Aβ40 in conditioned medium of cells stably expressing APP, 24 h incubation. Here is the method: BACE Cell-Based Assay (Cell Assay)
The cell-based assay measures inhibition or reduction of Aβ40 in conditioned medium of test compound treated cells expressing amyloid precursor protein.
Cells stably expressing Amyloid Precursor Protein (APP) were plated at a density of 40K cells/well in 96 well plates (Costar). The cells were cultivated for 24 hours at 37° C. and 5% CO2 in DMEM supplemented with 10% FBS. The test compounds were then added to cells in 10-point dose response concentrations with the starting concentration being either 100 μM or 10 μM. The compounds were diluted from stock solutions in DMSO and the final DMSO concentration of the test compounds on cells was 0.1%. After 24 h of incubation with the test compounds the supernatant conditioned media was collected and the Aβ40 levels were determined using a sandwich ELISA. The IC50 of the compound was calculated from the percent of control or percent inhibition of Aβ40 as a function of the concentration of the test compound.
The sandwich ELISA to detect Aβ40 was performed in 96 well microtiter plates, which were pre-treated with goat anti-rabbit IgG (Pierce). The capture and detecting antibody pair that were used to detect Aβ40 from cell supernatants were affinity purified pAb40 (Biosource) and biotinylated 6E10 (Signet Labs Inc.), respectively. The optimal concentration for the pAb40 antibody was 3 μg/ml in Superblock/TBS (Pierce) that was supplemented with 0.05% Tween 20 (Sigma). Optimal concentration for the detection antibody 6E10-biotinylated was 0.5 μg/ml in Superblock/TBS (Pierce) that had been supplemented with 2% normal goat serum and 2% normal mouse serum.
Cellular supernatants were incubated with the capture antibody for 3 h at 4° C., followed by 3 wash steps in TBS-tween (0.05%). The detecting antibody incubation was for 2 h at 4° C., again followed by the wash steps as described previously. The final readout of the ELISA is Time-Resolved Fluorescence (counts per minute) using Delfia reagents Streptavidin-Europium and Enhancement solutions (Perkin Elmer) and the Victor 2 multilabel counter (Perkin Elmer).

The structures appear in SMILES notation. Where only a bound is given, the exact number is not on record here.

T1 sequence (P56817 46-501): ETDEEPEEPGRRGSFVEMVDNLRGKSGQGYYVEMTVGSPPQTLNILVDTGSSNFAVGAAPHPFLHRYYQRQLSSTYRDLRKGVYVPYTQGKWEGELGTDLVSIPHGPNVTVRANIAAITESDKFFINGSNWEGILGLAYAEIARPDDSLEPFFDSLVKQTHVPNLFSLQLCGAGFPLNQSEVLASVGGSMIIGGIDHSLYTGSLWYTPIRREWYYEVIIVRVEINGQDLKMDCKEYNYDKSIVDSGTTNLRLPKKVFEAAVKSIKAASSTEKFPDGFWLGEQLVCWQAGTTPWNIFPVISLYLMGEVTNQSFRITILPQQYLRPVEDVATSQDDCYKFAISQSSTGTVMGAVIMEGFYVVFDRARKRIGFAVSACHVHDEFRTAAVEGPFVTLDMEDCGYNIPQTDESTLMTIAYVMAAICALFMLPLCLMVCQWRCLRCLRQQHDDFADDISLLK

With `CCc1ccc2c(c1)[C@@H](NC[C@@H](O)[C@H](Cc1cccc(C#N)c1)Nc1ccccc1F)CC1(CCC1)O2` [Example 27, 3-((2S,3R)-4-(((4S)-6-ethyl-3,4-dihydrospiro[chromene-2,1′-cyclobutan]-4-yl)amino)-2-((2-fluorophenyl)amino)-3-hydroxybutyl)benzonitrile], the IC50 in assay [1] lay within 1 to 5 µM; in assay [2], 0.1 to 1 µM.

Regarding `CCc1ccc2c(c1)[C@@H](NC[C@@H](O)[C@H](Cc1ccccc1)Nc1cccnc1)CC1(CCC1)O2` [Example 43, (2R,3S)-1-(((4S)-6-ethyl-3,4-dihydrospiro[chromene-2,1′-cyclobutan]-4-yl)amino)-4-phenyl-3-(3-pyridinylamino)-2-butanol], the IC50 in assay [1] and in assay [2] was 10 to 25 µM throughout.

For the molecule `CC(C)(C)Cc1cnc2c(c1)[C@@H](NC[C@@H](O)[C@H](Cc1cc(F)cc(F)c1)Nc1nccn3cnnc13)CC1(CCC1)O2` [Example 21, (2R,3S)-4-(3,5-difluorophenyl)-1-(((4′S)-6′-(2,2-dimethylpropyl)-3′,4′-dihydrospiro[cyclobutane-1,2′-pyrano[2,3-b]pyridin]-4′-yl)amino)-3-([1,2,4]triazolo[4,3-a]pyrazin-8-ylamino)-2-butanol], the IC50 in assay [1] is 0.1 to 1 µM; in assay [2], less than 0.1 µM.

As to `CC(C)(C)Cc1cnc2c(c1)[C@@H](NC[C@@H](O)[C@H](Cc1cc(F)cc(F)c1)Nc1ccnc(Cl)n1)CC1(CCC1)O2` [Example 24, (2R,3S)-3-((2-chloro-4-pyrimidinyl)amino)-4-(3,5-difluorophenyl)-1-(((4′S)-6′-(2,2-dimethylpropyl)-3′,4′-dihydrospiro[cyclobutane-1,2′-pyrano[2,3-b]pyridin]-4′-yl)amino)-2-butanol], the IC50 in assay [1] is less than 0.1 µM; in assay [2] it was 0.1 to 1 µM.

For the molecule `CC(C)(C)Cc1cnc2c(c1)[C@@H](NC[C@@H](O)[C@H](Cc1ccc(F)cc1)Nc1cc(Cl)ncn1)CC1(CCC1)O2` [Example 28, (2R,3S)-3-((6-chloro-4-pyrimidinyl)amino)-1-(((4′S)-6′-(2,2-dimethylpropyl)-3′,4′-dihydrospiro[cyclobutane-1,2′-pyrano[2,3-b]pyridin]-4′-yl)amino)-4-(4-fluorophenyl)-2-butanol], the IC50 is 1 to 5 µM in assay [1] and 10 to 25 µM in assay [2].

Turning to `CSc1nc(Cl)cc(N[C@@H](Cc2ccc(F)cc2)[C@H](O)CN[C@H]2CC3(CCC3)Oc3ncc(CC(C)(C)C)cc32)n1` [Example 34, (2R,3S)-3-((6-chloro-2-(methylthio)-4-pyrimidinyl)amino)-1-(((4′S)-6′-(2,2-dimethylpropyl)-3′,4′-dihydrospiro[cyclobutane-1,2′-pyrano[2,3-b]pyridin]-4′-yl)amino)-4-(4-fluorophenyl)-2-butanol], the IC50 in assay [1] was in the range of 5 to 10 µM; in assay [2], 10 to 25 µM.

For `CC(C)(C)Cc1cnc2c(c1)[C@@H](NC[C@@H](O)[C@H](Cc1ccc(F)cc1)Nc1ncnc3ccsc13)CC1(CCC1)O2` [Example 30, (2R,3S)-1-(((4′S)-6′-(2,2-dimethylpropyl)-3′,4′-dihydrospiro[cyclobutane-1,2′-pyrano[2,3-b]pyridin]-4′-yl)amino)-4-(4-fluorophenyl)-3-(thieno[3,2-d]pyrimidin-4-ylamino)-2-butanol], the IC50 in assay [1] was in the range of 5 to 10 µM; in assay [2], 10 to 25 µM.

On to `CCc1ccc2c(c1)[C@@H](NC[C@@H](O)[C@H](Cc1ccccc1)Nc1ccccc1F)CC1(CCC1)O2` [Example 31, (2R,3S)-1-(((4S)-6-ethyl-3,4-dihydrospiro[chromene-2,1′-cyclobutan]-4-yl)amino)-3-((2-fluorophenyl)amino)-4-phenyl-2-butanol], for which the figures for the IC50 in assay [1] and in assay [2] were 5 to 10 µM and 10 to 25 µM, respectively.

In turn, `CCc1ccc2c(c1)[C@@H](NC[C@@H](O)[C@H](Cc1ccccc1)Nc1cnccn1)CC1(CCCC1)O2` [Example 40, (2R,3S)-1-(((4S)-6-ethyl-3,4-dihydrospiro[chromene-2,1′-cyclopentan]-4-yl)amino)-4-phenyl-3-(2-pyrazinylamino)-2-butanol] returned an IC50 in assay [2] of 10 to 25 µM.

In the case of `CCc1ccc2c(c1)[C@@H](NC[C@@H](O)[C@H](Cc1ccccc1)Nc1ccccc1F)CC1(CCCC1)O2` [Example 32, (2R,3S)-1-(((4S)-6-ethyl-3,4-dihydrospiro[chromene-2,1′-cyclopentan]-4-yl)amino)-3-((2-fluorophenyl)amino)-4-phenyl-2-butanol], the IC50 in assay [1] was in the range of 5 to 10 µM; in assay [2] it was 10 to 25 µM.

Consider `CCc1ccc2c(c1)[C@@H](NC[C@@H](O)[C@H](Cc1ccccc1)Nc1ccncc1)CC1(CCC1)O2` [Example 44, (2R,3S)-1-(((4S)-6-ethyl-3,4-dihydrospiro[chromene-2,1′-cyclobutan]-4-yl)amino)-4-phenyl-3-(4-pyridinylamino)-2-butanol], for which, in assay [2], the IC50 was in the range of 1 to 5 µM.

Take `CCc1ccc2c(c1)[C@@H](NC[C@@H](O)[C@H](Cc1ccccc1)Nc1ccc(Cl)nn1)CC1(CCC1)O2` [Example 39, (2R,3S)-3-((6-chloro-3-pyridazinyl)amino)-1-(((4S)-6-ethyl-3,4-dihydrospiro[chromene-2,1′-cyclobutan]-4-yl)amino)-4-phenyl-2-butanol]: the IC50 in assay [1] and in assay [2] was 10 to 25 µM throughout.

On to `CCc1ccc2c(c1)[C@@H](NC[C@@H](O)[C@H](Cc1ccccc1)Nc1nccc(CC)n1)CC1(CCC1)O2` [Example 37, (2R,3S)-1-((S)-6-ethyl-2,2-spirocyclobutyl-chroman-4-ylamino)-4-phenyl-3-(4-ethylpyrimidin-2-ylamino)butan-2-ol], for which the IC50 in assay [1] was in the range of 10 to 25 µM; in assay [2], 5 to 10 µM.

As for `O[C@H](CN[C@H]1CC2(CCC2)Oc2ccc(Br)cc21)[C@H](Cc1ccccc1)Nc1nccn2cnnc12` [Example 22, (2R,3S)-1-(((4S)-6-bromo-3,4-dihydrospiro[chromene-2,1′-cyclobutan]-4-yl)amino)-4-phenyl-3-([1,2,4]triazolo[4,3-a]pyrazin-8-ylamino)-2-butanol], the IC50 in assay [1] was 10 to 25 µM; in assay [2], 5 to 10 µM.

Regarding `CC(C)(C)Cc1cnc2c(c1)[C@@H](NC[C@@H](O)[C@H](Cc1cc(F)cc(F)c1)Nc1ncccn1)CC1(CCC1)O2` [Example 25, (2R,3S)-4-(3,5-difluorophenyl)-1-(((4′S)-6′-(2,2-dimethylpropyl)-3′,4′-dihydrospiro[cyclobutane-1,2′-pyrano[2,3-b]pyridin]-4′-yl)amino)-3-(2-pyrimidinylamino)-2-butanol], the IC50 lay within 0.1 to 1 µM in assay [1] and 1 to 5 µM in assay [2].

Consider `CC(C)(C)Cc1cnc2c(c1)[C@@H](NC[C@@H](O)[C@H](Cc1ccc(F)cc1)Nc1ccnc(Cl)n1)CC1(CCC1)O2` [Example 29, (2R,3S)-3-((2-chloro-4-pyrimidinyl)amino)-1-(((4′S)-6′-(2,2-dimethylpropyl)-3′,4′-dihydrospiro[cyclobutane-1,2′-pyrano[2,3-b]pyridin]-4′-yl)amino)-4-(4-fluorophenyl)-2-butanol], for which the IC50 in assay [1] was in the range of 1 to 5 µM; in assay [2], 10 to 25 µM.

In the case of `CCc1ccc2c(c1)[C@@H](NC[C@@H](O)[C@H](Cc1ccccc1)Nc1ncccn1)CC1(CCC1)O2` [Example 38, (2R,3S)-1-((S)-6-ethyl-2,2-spirocyclobutyl-chroman-4-ylamino)-4-phenyl-3-(pyrimidin-2-ylamino)butan-2-ol], the IC50 in assay [1] and in assay [2] was 10 to 25 µM each time.

For `CC(C)(C)Cc1cnc2c(c1)[C@@H](NC[C@@H](O)[C@H](Cc1cc(F)cc(F)c1)Nc1ccccc1F)CC1(CCC1)O2` [Example 26, (2R,3S)-4-(3,5-difluorophenyl)-1-(((4′S)-6′-(2,2-dimethylpropyl)-3′,4′-dihydrospiro[cyclobutane-1,2′-pyrano[2,3-b]pyridin]-4′-yl)amino)-3-((2-fluorophenyl)amino)-2-butanol], the IC50 in assay [1] lay in the range of 1 to 5 µM; in assay [2] it was 10 to 25 µM.

Consider `CCc1ccc2c(c1)[C@@H](NC[C@@H](O)[C@H](Cc1ccccc1)Nc1nc3ccccc3s1)CC1(CCC1)O2` [Example 42, (2R,3S)-3-(1,3-benzothiazol-2-ylamino)-1-(((4S)-6-ethyl-3,4-dihydrospiro[chromene-2,1′-cyclobutan]-4-yl)amino)-4-phenyl-2-butanol], for which the IC50 in assay [1] lay within 10 to 25 µM.
